From PubChem BioAssay (NCI)
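Tested at 5 concentrations; 48 h exposure; 96-well plates; endpoints linearly interpolated, else capped at highest concentration. GI50 is the concentration that inhibits growth by half. At the TGI there is no net growth.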

Experiments:
Assay in all cases: NCI-60 cell line screen, 48 h
DU-145 prostate = tested on: DU-145 prostate
HL-60(TB) leukemia = tested on: HL-60(TB) leukemia
HCC-2998 colon = tested on: HCC-2998 colon
NCI/ADR-RES ovarian = tested on: NCI/ADR-RES ovarian
BT-549 breast = tested on: BT-549 breast
TK-10 renal = tested on: TK-10 renal
786-0 renal = tested on: 786-0 renal
U251 CNS = tested on: U251 CNS
MOLT-4 leukemia = tested on: MOLT-4 leukemia
SR leukemia = tested on: SR leukemia

Structure (SMILES) | GI50 (DU-145 prostate) [µM] | TGI (DU-145 prostate) [µM] | GI50 (HL-60(TB) leukemia) [nM] | TGI (HL-60(TB) leukemia) [µM] | GI50 (HCC-2998 colon) [µM] | TGI (HCC-2998 colon) [µM] | GI50 (NCI/ADR-RES ovarian) [nM] | TGI (NCI/ADR-RES ovarian) [µM] | GI50 (BT-549 breast) [nM] | TGI (BT-549 breast) [µM] | GI50 (TK-10 renal) [µM] | TGI (TK-10 renal) [µM] | GI50 (786-0 renal) [nM] | TGI (786-0 renal) [µM] | GI50 (U251 CNS) [nM] | TGI (U251 CNS) [µM] | GI50 (MOLT-4 leukemia) [nM] | TGI (MOLT-4 leukemia) [µM] | GI50 (SR leukemia) [nM] | TGI (SR leukemia) [nM]
Cn1c(COC(=O)NCCN2CCOCC2)nc2c(N3CCOCC3)nc(-c3ccccc3)nc21 | 1.25 | 2.68 | 521 | 4.03 | 1.62 | 3.41 | 1930 | 6.78 | 1080 | 2.71 | 1.48 | 2.88 | 843 | 2.23 | 1370 | 2.9 | 972 | 5.96 | – | –
C=C(C)[C@@H]1CCC[C@]2(C(=O)O)CC[C@]3(C)[C@@H](CC[C@@H]4[C@@]5(C)C/C(=C/c6ccncc6)C(=O)C(C)(C)[C@@H]5CC[C@]43C)[C@@H]12 | 4.03 | 45.1 | – | – | 1.94 | 4.29 | 3990 | > 100 | 2100 | 6.21 | 3.6 | 29.4 | 2240 | 6.23 | 2140 | 7.38 | 2070 | > 100 | – | –
N#Cc1ccc(N2Cc3cc(Cl)ccc3OC3=C2C(=O)N(Cc2ccccc2)C3=O)cc1 | 1.48 | 2.82 | – | – | 1.89 | 3.65 | 2690 | 11.4 | 1600 | 3.3 | 1.45 | 2.77 | 1920 | 3.44 | 1560 | 2.98 | 250 | 0.818 | 242 | 828
COC(=O)Nc1nc2ccc(Sc3ccc(NC(=O)Nc4cc(C(F)(F)F)ccc4F)cc3)cc2[nH]1 | 4.15 | 8.27 | 1460 | 12.3 | 3.96 | 13.1 | 2740 | 11.5 | 7860 | 24.2 | 5.11 | 11.3 | 5640 | 13.8 | 3270 | 7.28 | 3260 | 17 | – | –
C/C(=N/Nc1ccc([N+](=O)[O-])cc1[N+](=O)[O-])C(CC(C(=O)Nc1ccccc1C)/C(C)=N\Nc1ccc([N+](=O)[O-])cc1[N+](=O)[O-])C(=O)Nc1ccccc1C (stereo not given) | – | – | – | > 100 | – | 60.8 | – | – | – | – | – | 60.1 | – | 41.3 | – | 14 | – | – | – | –
O=C1c2ccccc2C(=O)c2c1ccc1c3ccccc3n(Cc3ccccc3)c21 | – | – | – | > 100 | – | – | – | – | – | – | – | – | – | > 100 | – | – | – | > 100 | – | > 100000
O=[N+]([O-])O.[NH-]C1CCCCC1[NH-].[NH-]C1CCCCC1[NH-].[NH-]C1CCCCC1[NH-].[OH-].[OH-].[OH-].[Pt+4].[Pt+4].[Pt+4] (stereo not given) | 1.35 | 50 | 1090 | 4.01 | 2.09 | 19 | 1150 | > 59.3 | 3020 | > 62.5 | 2.2 | 28.9 | 40.8 | 3.19 | 513 | 38.1 | 28.3 | 2.2 | – | –
O=C1/C(=C/c2ccccc2)CN(C(=O)OCC(Cl)(Cl)Cl)C/C1=C\c1ccccc1 | – | – | – | 3.38 | – | – | – | – | – | – | – | 17.1 | – | 5.46 | – | 3.28 | – | 10.3 | – | 6230
C#Cc1ccc(-n2c(/C=C/c3cc(OC)c(OC)c(OC)c3)nc3ncccc3c2=O)cc1 | 5.36 | > 100 | 3840 | 25.6 | 27.5 | > 100 | 3610 | 34.5 | 2990 | 9.95 | 17.3 | 62.9 | 5310 | > 100 | 9930 | > 100 | – | – | – | –
CC[C@@]1(O)C(=O)OCc2c1cc1n(c2=O)Cc2cc3c(NC(C)=O)c(O)ccc3nc2-1 | – | – | 416 | 5.05 | 8.21 | 47.1 | – | – | – | – | > 71.4 | > 100 | 373 | 2.17 | 252 | 4.46 | 133 | 0.968 | < 14.8 | 108
CN1C(=O)C23CC4=CC=CC(O)C4N2C(=O)C1(CO)SS3 (stereo not given) | – | 0.318 | – | – | – | 0.351 | – | 0.0661 | – | 0.742 | – | 0.34 | – | 0.222 | – | 0.448 | – | 0.447 | – | 99.6
CCSc1nc(N)c2cnn(C)c2n1 | 40 | > 100 | 52100 | > 100 | 25.4 | 92.1 | > 100000 | > 100 | 42900 | > 100 | 34.1 | > 100 | 80000 | > 100 | 40600 | > 100 | 59900 | > 100 | – | –
CCN1CC2(C)CC[C@@H](OC)C34[C@@H]2[C@H](OC(C)=O)C2(OCO[C@@]25C[C@H](OC)C2C[C@]3(O)[C@@H]5[C@H]2O)[C@H]14 | – | – | – | > 100 | – | > 100 | – | – | – | – | – | > 100 | – | > 100 | – | > 100 | – | – | – | > 100000
CN1c2ccccc2C(=O)Nc2cnc(Cl)nc21 | – | > 100 | – | > 100 | – | > 100 | – | > 100 | – | – | – | > 100 | – | > 100 | – | > 100 | – | > 100 | – | –
COc1cc(/C=C\c2cccnc2Nc2ccccc2)cc(OC)c1OC | 6.22 | > 100 | 8000 | 36.7 | 7.74 | > 100 | 4440 | 63.2 | 14300 | 65.3 | 15.5 | 80.7 | 5980 | 44.1 | 4100 | > 100 | 6720 | 46.2 | – | –
COc1cc(C(=O)/C=C/c2c(C(F)(F)F)nc3sccn23)cc(OC)c1OC | 1.41 | 2.86 | 1830 | 7.63 | 1.71 | 3.13 | – | – | 2260 | 6.87 | 2.3 | 5.12 | 1760 | 3.16 | 1380 | 2.79 | 1920 | 5.81 | 540 | 3610
